Experimental data taken from BindingDB's records for doi:10.1038/347146a0 (U. 109, 1990).

Experiments:
D(2) dopamine receptor = D(2) dopamine receptor (Rattus norvegicus, UniProt P61169)
D(3) dopamine receptor = D(3) dopamine receptor (Rattus norvegicus, UniProt P19020)
D(3) dopamine receptor, sequence (P19020 whole entry): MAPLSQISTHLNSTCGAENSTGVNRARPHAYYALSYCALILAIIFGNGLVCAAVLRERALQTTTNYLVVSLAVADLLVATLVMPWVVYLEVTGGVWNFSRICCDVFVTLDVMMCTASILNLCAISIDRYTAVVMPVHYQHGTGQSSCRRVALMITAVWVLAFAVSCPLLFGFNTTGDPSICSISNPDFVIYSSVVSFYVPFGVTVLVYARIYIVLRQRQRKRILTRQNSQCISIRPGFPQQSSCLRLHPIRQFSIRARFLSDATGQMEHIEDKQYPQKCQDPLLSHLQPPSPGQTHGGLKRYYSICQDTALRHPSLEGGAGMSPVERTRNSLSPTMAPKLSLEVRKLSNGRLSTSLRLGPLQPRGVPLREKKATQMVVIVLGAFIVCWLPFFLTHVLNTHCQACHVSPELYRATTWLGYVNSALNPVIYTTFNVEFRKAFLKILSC

D(2) dopamine receptor, sequence (P61169 whole entry): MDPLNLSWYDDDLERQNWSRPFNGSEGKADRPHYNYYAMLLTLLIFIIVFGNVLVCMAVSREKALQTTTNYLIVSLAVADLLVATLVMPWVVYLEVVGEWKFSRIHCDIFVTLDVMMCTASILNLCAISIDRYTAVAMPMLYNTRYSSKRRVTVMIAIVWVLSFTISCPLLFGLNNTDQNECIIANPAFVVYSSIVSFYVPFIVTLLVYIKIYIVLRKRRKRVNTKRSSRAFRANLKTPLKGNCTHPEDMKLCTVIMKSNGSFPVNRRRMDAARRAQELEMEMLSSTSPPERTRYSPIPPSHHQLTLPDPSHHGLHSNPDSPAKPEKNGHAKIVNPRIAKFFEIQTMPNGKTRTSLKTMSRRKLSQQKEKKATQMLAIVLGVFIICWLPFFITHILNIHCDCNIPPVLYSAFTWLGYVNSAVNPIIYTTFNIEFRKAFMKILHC

Ki (D(2) dopamine receptor) [nM] | Ki (D(3) dopamine receptor) [nM] | SMILES
1700 | 27 | Nc1nc2c(ncn2[C@@H]2O[C@H](COP(=O)(O)OP(=O)(O)NP(=O)(O)O)[C@@H](O)[C@H]2O)c(=O)[nH]1 [Guanylyl imidodiphosphate]
0.61 | 1.2 | CCS(=O)(=O)c1cc(C(=O)NCC2CCCN2CC2CC2)c(OC)cc1I (stereo unspecified) [NSC_122245]

SMILES | Ki (D(2) dopamine receptor) [nM] | Ki (D(3) dopamine receptor) [nM]
CCCN(CCC)C1C=Cc2c(OC)cccc2C1C (stereo unspecified) [CAS_5311190] | 40 | 9.2
